One series concerns MRSA ATCC 43300. Put plainly: MIC, broth microdilution. To be noted: Staphylococcus aureus. It counts as cell-based, Staphylococcus aureus. The protocol: (§1) Determination of Minimal Inhibitory Concentration (MIC) for Vancomycin, Teicoplanin and Tei-Analogs Versus Selected Strains
(§2) MICs were determined by the broth microdilution method. Specifically, 12 Colonies of the test strain were picked up from 18-24 hour agar cultures and freshly inoculated into broth mediums until reaching the turbidity of a 0.5 McFarland standard. The broth culture was adjusted with broth medium to approximately 1×10^8 CFUmL^−1. […] The plates were incubated in 37° C. for 18-24 hours and monitored for the wells of the positive control, where cells grew, and the wells of the negative control, where wells should not grow. The MIC value was determined for the concentration of a test compound, at which there was no visible growth in the well.
For orientation: Broth dilution looks for growth in wells or tubes with falling amounts of substance.

The subject of a further series is MRSA ATCC 700698 hVISA. As to the kind of experiment: MIC, broth microdilution. The series is classed as cell-based, Staphylococcus aureus. The protocol:
as §1, §2

The subject of another series is MRSA ATCC 700787 VRSA. As to the kind of experiment: MIC, broth microdilution. It counts as cell-based, Staphylococcus aureus. As for the experimental part: as §1, §2
Another series deals with MRSA ATCC 700789 VRSA. Put plainly: MIC, broth microdilution. It counts as cell-based, Staphylococcus aureus. To be noted: Staphylococcus aureus. The protocol: as §1, §2
Another series relates to MRSA ATCC BAA-38. Put plainly: MIC, broth microdilution. The series is classed as cell-based, Staphylococcus aureus. To be noted: Staphylococcus aureus. As for the experimental part: as §1, §2
The next series deals with MRSA ATCC BAA-39. As to the kind of experiment: MIC, broth microdilution. It counts as cell-based, Staphylococcus aureus. To be noted: Staphylococcus aureus. The protocol: as §1, §2
The next series concerns MRSA ATCC BAA-44. Put plainly: MIC, broth microdilution. To be noted: Staphylococcus aureus. It counts as cell-based, Staphylococcus aureus. The protocol:
as §1, §2

The next series has as its system S. aureus ATCC 29213. Put plainly: MIC, broth microdilution. The series is classed as cell-based, Staphylococcus aureus. The protocol:
as §1, §2

In the next series the test system is E. faecalis ATCC 29302. As to the kind of experiment: MIC, broth microdilution. The series is classed as cell-based. As for the experimental part: as §1, §2
The subject of the next series is VRE ATCC 700221 (vanA). As to the kind of experiment: MIC, broth microdilution. It counts as cell-based, enterococci. As for the experimental part:
as §1, §2

The subject of another series is VRE ATCC 700425 (vanC). Put plainly: MIC, broth microdilution. The series is classed as cell-based, enterococci. The protocol: as §1, §2
The next series deals with VRE ATCC 700802 (vanB). As to the kind of experiment: MIC, broth microdilution. It counts as cell-based, enterococci. As for the experimental part: as §1, §2
Series [1] has as its system A. baumannii ATCC 19606. As to the kind of experiment: MIC, broth microdilution. It counts as cell-based, Acinetobacter baumannii. As for the experimental part: as §1, §2
Series [2] has as its system MRSA ATCC 700787. As to the kind of experiment: Thin-section TEM, cell wall morphology. The series is classed as cell-based, Staphylococcus aureus. As for the experimental part:
Thin-Section Transmission Electron Microscopy (TEM)
An overnight cultured MRSA ATCC 700787, VRE ATCC 700221 or A. baumannii ATCC 19606 was individually sub-cultured into a fresh medium. Bacteria at the exponential phase were treated with a given test compound at a concentration of 4×MIC for 1-4 hour at 37° C. and followed by wash and resuspension in PBS. Bacteria cells for the TEM analysis were prepared as follows: Cells were fixed with 2.5% glutaraldehyde for 30 minutes. After the fixation, cells were washed twice with PBS and fixed with 1% osmium tetraoxide for another 30 minutes. All the buffer was removed with distilled water. The cells were then stained with 1% uranyl acetate and dehydrated with a graded ethanol solution. Cells were embedded in resin. Finally, each sample was cut into thin slices of approximately 90 nm with a glass knife and stained with uranyl acetate. The images of bacterial morphological were recorded.
The cell wall/membrane apparently is the targets, while the extent of damage depends on what compound imposes on the strain. […] Cell wall thickening has been a common phenotype in clinical MRSA isolates, which may well be a phenotypic determinant for VRSA. The systemic cell-wall damage may account for the cell-wall biosynthesis crippled all over the cell surface in cell-wall thickening strains, thus leading cells to lysis as a result of the osmotic pressure of cytoplasm.

For series [3], the system named is MRSA ATCC 700787. As to the kind of experiment: Minimal bactericidal concentration (MBC). It counts as cell-based, Staphylococcus aureus. As for the experimental part:
(§3) Minimal Bactericidal Concentration (MBC) Determination
(§4) The MBC test is an extension of the MIC examination. MBC was determined by performing subcultures on antibiotic-free agar from both the well where there was no visible growth at the MIC of a tested antibiotic and from the positive control well (with inoculum but without compounds). The plates were incubated at 37° C. for 18-24 hours. The MBC was taken as the lowest concentration of the test compound that results in more than 99.9% reduction of viable bacteria. If MBC was one or two dilutions above a given MIC value (MBC/MIC ratio was less than or equal to four), the antibiotic was considered bactericidal against the test organism.

A further series relates to AB ATCC 19606. As to the kind of experiment: Minimal bactericidal concentration (MBC). The series is classed as cell-based, Acinetobacter baumannii. As for the experimental part:
as §3, §4

Series [4] relates to A. baumannii ATCC 19606. Put plainly: Thin-section TEM, cell wall morphology. It counts as cell-based, Acinetobacter baumannii. To be noted: AB ATCC 19606; 24 50 μM, colistin 3.2 μM, combination 25 μM each.
In another series the test system is HEK293T cells. Put plainly: Alamar Blue cell viability assay. It counts as cell-based, human. To be noted: up to 100 μgmL^−1; 2 and 24 h. The protocol:
The Alamar Blue (AB) assay, which includes a redox indicator that changes color or emits fluorescence in response to a metabolic activity, was used to assess in vitro mammalian cell cytotoxicity (human embryonic kidney cells (HEK293T)) upon an antibiotic treatment. 2×10^5 cellsmL^−1 were allowed to adhere on 96-well plates overnight at 37° C. in a humidified incubator (5% CO2 atmosphere). Tested compounds were dissolved in 50% DMSO to make 1 mgmL^−1 of a stock solution. Cells were separately aliquoted with 5 μL of a test compound (final concentration: 100 μgmL^−1) and incubated. PBS and 50% DMSO, which was used to dissolve compounds, served as a control. Cell viability was triplicated and assessed at 2 and 24 hour time points for each test compound, on which the measurements followed the manufacturer protocol.
For orientation: The colour change of resazurin is a common sign of viable cells or microbes.

For series [5], the system named is A. baumannii ATCC 19606. Put plainly: In vivo efficacy, intranasal A. baumannii infection. To be noted: BAL fluid, 24 hours post-inoculation; 24 and kanamycin 30, amikacin 15 mgkg^−1. On the set-up: species or system mice. The protocol: In Vivo Efficacy of r6,N-Acyl-Glc Tei Analogs
Female C57BL/6 mice (6 weeks of age; about 16-19 g, 3-5 mice per group) were intraperitoneally inoculated with 300 μL of MRSA ATCC 700787 suspension (about 10^7 CFUmL^−1). For intranasal A. baumannii (ATCC 19606) inoculation, mice were anesthetized, and inoculated intranasally with about 10^7-10^8 CFUmL^−1 A. baumannii in 50 μL of PBS. Treatments were started 1 hour after the bacterial challenge. The dose administration to mice was set as follows: teicoplanin (1) or r6,C8-Tei analog (14) 20 mgkg^−1 was intraperitoneally injected to MRSA-infected mice; amikacin (15 mgkg^−1), teicoplanin (1) (30 mgkg^−1), kanamycin (30 mgkg^−1) or r1,Me2-r6,guanidino-C8 analog (24) (30 mgkg^−1) was intraperitoneally injected to AB-infected mice. To assess bacteraemia, the test animals were sacrificed to collect 1 mL of peritoneal fluid (PF) for MRSA counting or the lungs were lavaged to collect 0.6 mL bronchoalveolar lavage (BAL) fluid for A. baumannii counting.
For AB (ATCC 19606), female C57BL/6 mice were first anesthetized by intraperitoneal injection of zoletil and then intranasally inoculated with 50 μL of bacteria in a PBS solution (about 10^7-10^8 CFUmL^−1). The treatment started 1 hour post-infection with a single dose of compound 24 (30 mgkg^−1), compound 1 (30 mgkg^−1), amikacin (15 mgkg^−1), or kanamycin (30 mgkg^−1), where saline/compound 1 and amikacin/kanamycin respectively served as negative and positive controls. To assess the density of bacteraemia, the lungs of mice were lavaged to collect 0.6 mL bronchoalveolar lavage (BAL) fluid from each mouse at 24 hours post-inoculation. For saline/compound 1 treated controls, the bacterial load was counted (about 4 log CFUmL^−1, FIG. 4B), where the bacterial load was reduced by 0.5 or 1 log CFUmL^−1 with the treatment of amikacin/kanamycin or compound 24, respectively.

Structures are written as SMILES. In brackets after ≈: the same amount, converted by molar mass. Several values for one entry are separate records, joined by “and”; a condition that tells them apart may be missing. Identical values can stand only once. Like-named read-outs stand apart in the source and are kept apart here.

The MIC is the lowest concentration found to suppress growth. Consider `CN[C@H](CC(C)C)C(=O)N[C@H]1C(=O)N[C@@H](CC(N)=O)C(=O)N[C@H]2C(=O)N[C@H]3C(=O)N[C@H](C(=O)N[C@H](C(=O)O)c4cc(O)cc(O)c4-c4cc3ccc4O)[C@H](O)c3ccc(c(Cl)c3)Oc3cc2cc(c3O[C@@H]2O[C@H](CO)[C@@H](O)[C@H](O)[C@H]2O[C@H]2C[C@](C)(N)[C@H](O)[C@H](C)O2)Oc2ccc(cc2Cl)[C@H]1O` [Compound 2, vancomycin, reference compound], for which the minimum inhibitory concentration (MIC) against MRSA ATCC 43300 came to 1 µg/mL (≈ 0.69 µM); in the series with MRSA ATCC 700698 hVISA (Staphylococcus aureus) it was 4 µg/mL (≈ 2.76 µM); against MRSA ATCC 700787 VRSA (Staphylococcus aureus), 16 µg/mL (≈ 11 µM); in the series with MRSA ATCC 700789 VRSA, 16 µg/mL (≈ 11 µM); against MRSA ATCC BAA-38 it was 1 µg/mL (≈ 0.69 µM); with MRSA ATCC BAA-39, 1 µg/mL (≈ 0.69 µM). The minimum inhibitory concentration (MIC) with MRSA ATCC BAA-44 is 2 µg/mL (≈ 1.38 µM); against S. aureus ATCC 29213 (Staphylococcus aureus, ATCC29213) it was 1 µg/mL (≈ 0.69 µM); in the series on E. faecalis ATCC 29302 (Enterococcus faecalis, ATCC29302) it was 2 µg/mL (≈ 1.38 µM); in the series with VRE ATCC 700221 (vanA) (Enterococcus) it was above 128 µg/mL; in the series on VRE ATCC 700425 (vanC) (Enterococcus), 16 µg/mL (≈ 11 µM); in the series on VRE ATCC 700802 (vanB) (Enterococcus), 64 µg/mL (≈ 44.2 µM). Also, the MIC against A. baumannii ATCC 19606 [1] (Acinetobacter baumannii, ATCC19606) was 200 µM and 297 µg/mL; in the series on A. baumannii ATCC 19606 [1] (Acinetobacter baumannii, ATCC19606, read-out: MIC on AB), above 190 µg/mL. Moreover, the “cell wall morphology by TEM” value in the series with MRSA ATCC 700787 [2] is listed as “floppy”.
The MBC is the lowest tested concentration that kills the bacteria rather than only halting them. A lower MBC goes with greater bactericidal potency. Consider `CN(C)[C@H]1C(=O)N[C@@H]2Cc3ccc(c(Cl)c3)Oc3cc4cc(c3O)Oc3ccc(cc3Cl)[C@@H](O[C@@H]3O[C@H](CO)[C@@H](O)[C@H](O)[C@H]3NC(=O)CCCCCCCNC(=N)N)[C@@H]3NC(=O)[C@H](NC(=O)[C@@H]4NC(=O)[C@@H](NC2=O)c2cc(O)cc(c2)Oc2cc1ccc2O)c1ccc(O)c(c1)-c1c(O)cc(O)cc1[C@@H](C(=O)O)NC3=O` [Compound 24, r1,Me2-r6,C8-guanidino-Tei], for which the MIC in the series with MRSA ATCC 700698 hVISA (MRSA ATCC 700698 hVISA) is 0.031 µg/mL (≈ 0.0197 µM); against MRSA ATCC 700787 VRSA (MRSA ATCC 700787, Table 4) it was 0.016 µg/mL (≈ 0.0102 µM); with MRSA ATCC 700787 VRSA (MRSA ATCC 700787 VRSA) it was 0.016 µg/mL (≈ 0.0102 µM); in the series on S. aureus ATCC 29213 (SA ATCC 29213), 0.5 µg/mL (≈ 0.318 µM); in the series on E. faecalis ATCC 29302 (EF ATCC 29302), 0.5 µg/mL (≈ 0.318 µM); against VRE ATCC 700221 (vanA) (VRE ATCC 700221 (vanA)) it was above 16 µg/mL. The MIC against VRE ATCC 700425 (vanC) (VRE ATCC 700425 (vanC)) was 8 µg/mL (≈ 5.09 µM); against VRE ATCC 700802 (vanB) (VRE ATCC 700802 (vanB)), 4 µg/mL (≈ 2.55 µM); with A. baumannii ATCC 19606 [1] (A. baumannii ATCC 19606, Table 3, first figure of cell), 25 µM; in the series with A. baumannii ATCC 19606 [1] (A. baumannii ATCC 19606, Table 3, second figure of cell) it was 39.24 µg/mL; against A. baumannii ATCC 19606 [1] (AB ATCC 19606, Table 4) it was 39.24 µg/mL. Also, the “MIC on AB” value in the series on A. baumannii ATCC 19606 [1] (A. baumannii ATCC 19606) was found to be 39.24 µg/mL (≈ 25 µM). For the same compound, the MBC in the series with MRSA ATCC 700787 [3] amounted to 0.031 µg/mL (≈ 0.0197 µM); against AB ATCC 19606, 39.24 µg/mL (≈ 25 µM). For the same compound, the MBC/MIC in the series on MRSA ATCC 700787 [3] turned out to be 2; in the series on AB ATCC 19606 it was 1. Besides, the “cell membrane/cell wall morphology by TEM” value with A. baumannii ATCC 19606 [4] is given as “intactness of cell membrane/cell wall was severely damaged”. Further, the “cytotoxicity to HEK293T cells” value with HEK293T cells is “did not exhibit any observable toxicity”. Besides, the “bacterial load reduced by” value with A. baumannii ATCC 19606 [5] is recorded as 1 log CFUmL^−1.

The record behind these values is US11739122B2, “Glycopeptide antibiotic compounds, methods for producing the same, and uses thereof” (Academia Sinica, priority 2019, dated 2023).
